Activity calls are given as the source filed them. No cut-off for these calls is given here.
Tests used:
[1] = target: Tyrosine-protein kinase JAK1 (Homo sapiens) (UniProt P23458); details: Compound concentration 1000.0 nM
[2] = test system: eIF-2-alpha kinase GCN2 (Homo sapiens), Q9P2K8 [S808G]; details: Compound concentration 1000.0 nM
[3] = target: Mitotic checkpoint serine/threonine-protein kinase BUB1 (Homo sapiens) (UniProt O43683); details: Compound concentration 1000.0 nM
[4] = target: Ribosomal protein S6 kinase beta-1 (Homo sapiens) (UniProt P23443); details: Compound concentration 1000.0 nM
Ribosomal protein S6 kinase beta-1 (Homo sapiens), sequence (P23443 whole entry, looked up): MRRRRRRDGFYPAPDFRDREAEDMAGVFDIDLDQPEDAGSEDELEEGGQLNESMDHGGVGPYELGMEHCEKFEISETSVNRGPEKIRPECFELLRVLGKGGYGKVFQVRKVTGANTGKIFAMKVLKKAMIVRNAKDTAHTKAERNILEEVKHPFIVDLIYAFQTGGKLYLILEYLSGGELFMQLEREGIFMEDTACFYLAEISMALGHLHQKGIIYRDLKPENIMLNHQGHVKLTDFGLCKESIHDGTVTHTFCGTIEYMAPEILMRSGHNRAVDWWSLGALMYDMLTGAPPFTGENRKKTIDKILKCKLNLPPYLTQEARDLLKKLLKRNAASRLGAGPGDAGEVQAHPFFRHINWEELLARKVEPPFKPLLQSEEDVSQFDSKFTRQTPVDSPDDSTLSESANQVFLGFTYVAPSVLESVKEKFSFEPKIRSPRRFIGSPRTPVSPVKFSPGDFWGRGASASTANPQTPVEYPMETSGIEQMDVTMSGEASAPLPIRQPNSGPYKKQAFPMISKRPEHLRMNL

[5] = target: Dual specificity mitogen-activated protein kinase kinase 7 (Homo sapiens) (UniProt O14733); details: Compound concentration 1000.0 nM
[6] = test system: Receptor-type tyrosine-protein kinase FLT3 (Homo sapiens), P36888 [UNDEFINED MUTATION]; details: Compound concentration 1000.0 nM
Receptor-type tyrosine-protein kinase FLT3 (Homo sapiens), P36888 [UNDEFINED MUTATION], sequence (P36888 whole entry, looked up, change not shown): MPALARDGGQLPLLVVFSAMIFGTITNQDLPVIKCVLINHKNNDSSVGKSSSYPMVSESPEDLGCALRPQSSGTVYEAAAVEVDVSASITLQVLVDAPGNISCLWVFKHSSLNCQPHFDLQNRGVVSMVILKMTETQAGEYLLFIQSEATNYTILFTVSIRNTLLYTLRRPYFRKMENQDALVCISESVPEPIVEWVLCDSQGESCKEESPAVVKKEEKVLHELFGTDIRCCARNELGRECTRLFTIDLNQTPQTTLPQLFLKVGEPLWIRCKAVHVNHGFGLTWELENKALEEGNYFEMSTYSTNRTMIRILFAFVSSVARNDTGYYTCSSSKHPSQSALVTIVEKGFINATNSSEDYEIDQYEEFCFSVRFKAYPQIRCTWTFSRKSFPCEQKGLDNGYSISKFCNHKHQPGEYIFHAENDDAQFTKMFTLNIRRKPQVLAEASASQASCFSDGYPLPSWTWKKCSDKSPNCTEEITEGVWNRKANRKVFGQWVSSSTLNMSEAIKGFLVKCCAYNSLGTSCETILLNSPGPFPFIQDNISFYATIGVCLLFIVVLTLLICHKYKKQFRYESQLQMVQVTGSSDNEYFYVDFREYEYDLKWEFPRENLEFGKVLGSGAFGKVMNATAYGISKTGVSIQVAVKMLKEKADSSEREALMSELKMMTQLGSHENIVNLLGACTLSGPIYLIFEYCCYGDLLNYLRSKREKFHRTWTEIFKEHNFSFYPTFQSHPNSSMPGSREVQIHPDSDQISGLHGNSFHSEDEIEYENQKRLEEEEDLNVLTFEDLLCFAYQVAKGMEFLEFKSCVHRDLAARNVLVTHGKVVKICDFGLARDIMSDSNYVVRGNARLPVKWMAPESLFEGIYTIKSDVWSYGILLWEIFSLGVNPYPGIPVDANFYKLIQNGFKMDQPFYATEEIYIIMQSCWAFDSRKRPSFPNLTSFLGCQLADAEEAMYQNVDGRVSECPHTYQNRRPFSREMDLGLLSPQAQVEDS

[7] = target: 5-hydroxytryptamine receptor 2B (Homo sapiens) (UniProt P41595); assay: Serotonin 5-HT2b (human) CEREP ligand profiling; details: Compound concentration 10.0 uM
[8] = target: Casein kinase I isoform gamma-1 (Homo sapiens) (UniProt Q9HCP0); details: Compound concentration 1000.0 nM
[9] = target: Serine/threonine-protein kinase Chk1 (Homo sapiens) (UniProt O14757); details: Compound concentration 1000.0 nM
Serine/threonine-protein kinase Chk1 (Homo sapiens), sequence (O14757 whole entry): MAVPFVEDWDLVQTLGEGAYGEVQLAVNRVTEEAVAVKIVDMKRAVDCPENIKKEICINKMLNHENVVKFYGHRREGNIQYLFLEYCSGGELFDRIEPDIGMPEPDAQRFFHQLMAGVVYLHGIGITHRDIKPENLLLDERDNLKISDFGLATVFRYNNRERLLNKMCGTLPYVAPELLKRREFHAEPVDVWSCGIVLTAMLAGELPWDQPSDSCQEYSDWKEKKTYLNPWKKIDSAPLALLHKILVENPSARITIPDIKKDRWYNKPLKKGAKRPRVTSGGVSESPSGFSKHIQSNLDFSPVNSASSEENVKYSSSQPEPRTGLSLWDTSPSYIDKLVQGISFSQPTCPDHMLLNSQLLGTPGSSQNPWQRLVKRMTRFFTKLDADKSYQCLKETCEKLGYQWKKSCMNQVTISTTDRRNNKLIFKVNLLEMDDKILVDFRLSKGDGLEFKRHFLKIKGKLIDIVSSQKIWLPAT

[10] = target: Calcium/calmodulin-dependent protein kinase type II subunit gamma (Homo sapiens) (UniProt Q13555); details: Compound concentration 1000.0 nM
[11] = target: Phosphatidylinositol 5-phosphate 4-kinase type-2 beta (Homo sapiens) (UniProt P78356); details: Compound concentration 1000.0 nM
[12] = target: Receptor-type tyrosine-protein kinase FLT3 (Homo sapiens) (UniProt P36888); details: Compound concentration 1000.0 nM
Receptor-type tyrosine-protein kinase FLT3 (Homo sapiens), sequence (P36888 whole entry): as the sequence (P36888 whole entry, looked up, change not shown) above

[13] = target: 5'-AMP-activated protein kinase catalytic subunit alpha-2 (Homo sapiens) (UniProt P54646); details: Compound concentration 1000.0 nM
[14] = target: cAMP-dependent protein kinase catalytic subunit alpha (Homo sapiens) (UniProt P17612); details: Compound concentration 1000.0 nM
[15] = target: Calcium/calmodulin-dependent protein kinase type 1B (Homo sapiens) (UniProt Q6P2M8); details: Compound concentration 1000.0 nM
[16] = target: Cyclin-dependent kinase 2 (Homo sapiens) (UniProt P24941); details: Compound concentration 1000.0 nM
[17] = test system: Phosphatidylinositol 4,5-bisphosphate 3-kinase catalytic subunit alpha isoform (Homo sapiens), P42336 [E545A]; details: Compound concentration 1000.0 nM
[18] = GPCRScan assay: inhibition of GABA/PBR; design: species or system Rattus norvegicus; radioligand conc. used [nm] 0.3 – 2.0, parental cells brain tissue
[19] = target: Death-associated protein kinase 3 (Homo sapiens) (UniProt O43293); details: Compound concentration 1000.0 nM
[20] = target: Mitogen-activated protein kinase kinase kinase kinase 3 (Homo sapiens) (UniProt Q8IVH8); details: Compound concentration 1000.0 nM
[21] = target: Dual specificity tyrosine-phosphorylation-regulated kinase 2 (Homo sapiens) (UniProt Q92630); details: Compound concentration 1000.0 nM
[22] = target: Ribosomal protein S6 kinase alpha-5 (Homo sapiens) (UniProt O75582); details: Compound concentration 1000.0 nM
[23] = target: Serine/threonine-protein kinase 4 (Homo sapiens) (UniProt Q13043); details: Compound concentration 1000.0 nM
[24] = target: STE20-like serine/threonine-protein kinase (Homo sapiens) (UniProt Q9H2G2); details: Compound concentration 1000.0 nM
[25] = target: Ephrin type-A receptor 4 (Homo sapiens) (UniProt P54764); details: Compound concentration 1000.0 nM
[26] = target: Serine/threonine-protein kinase PknB (Mycobacterium tuberculosis) (UniProt P9WI81); details: Compound concentration 1000.0 nM
[27] = target: Phosphatidylinositol 3-kinase C2 domain-containing subunit gamma (Homo sapiens) (UniProt O75747); details: Compound concentration 1000.0 nM
Phosphatidylinositol 3-kinase C2 domain-containing subunit gamma (Homo sapiens), sequence (O75747 whole entry, the tested form may be a part): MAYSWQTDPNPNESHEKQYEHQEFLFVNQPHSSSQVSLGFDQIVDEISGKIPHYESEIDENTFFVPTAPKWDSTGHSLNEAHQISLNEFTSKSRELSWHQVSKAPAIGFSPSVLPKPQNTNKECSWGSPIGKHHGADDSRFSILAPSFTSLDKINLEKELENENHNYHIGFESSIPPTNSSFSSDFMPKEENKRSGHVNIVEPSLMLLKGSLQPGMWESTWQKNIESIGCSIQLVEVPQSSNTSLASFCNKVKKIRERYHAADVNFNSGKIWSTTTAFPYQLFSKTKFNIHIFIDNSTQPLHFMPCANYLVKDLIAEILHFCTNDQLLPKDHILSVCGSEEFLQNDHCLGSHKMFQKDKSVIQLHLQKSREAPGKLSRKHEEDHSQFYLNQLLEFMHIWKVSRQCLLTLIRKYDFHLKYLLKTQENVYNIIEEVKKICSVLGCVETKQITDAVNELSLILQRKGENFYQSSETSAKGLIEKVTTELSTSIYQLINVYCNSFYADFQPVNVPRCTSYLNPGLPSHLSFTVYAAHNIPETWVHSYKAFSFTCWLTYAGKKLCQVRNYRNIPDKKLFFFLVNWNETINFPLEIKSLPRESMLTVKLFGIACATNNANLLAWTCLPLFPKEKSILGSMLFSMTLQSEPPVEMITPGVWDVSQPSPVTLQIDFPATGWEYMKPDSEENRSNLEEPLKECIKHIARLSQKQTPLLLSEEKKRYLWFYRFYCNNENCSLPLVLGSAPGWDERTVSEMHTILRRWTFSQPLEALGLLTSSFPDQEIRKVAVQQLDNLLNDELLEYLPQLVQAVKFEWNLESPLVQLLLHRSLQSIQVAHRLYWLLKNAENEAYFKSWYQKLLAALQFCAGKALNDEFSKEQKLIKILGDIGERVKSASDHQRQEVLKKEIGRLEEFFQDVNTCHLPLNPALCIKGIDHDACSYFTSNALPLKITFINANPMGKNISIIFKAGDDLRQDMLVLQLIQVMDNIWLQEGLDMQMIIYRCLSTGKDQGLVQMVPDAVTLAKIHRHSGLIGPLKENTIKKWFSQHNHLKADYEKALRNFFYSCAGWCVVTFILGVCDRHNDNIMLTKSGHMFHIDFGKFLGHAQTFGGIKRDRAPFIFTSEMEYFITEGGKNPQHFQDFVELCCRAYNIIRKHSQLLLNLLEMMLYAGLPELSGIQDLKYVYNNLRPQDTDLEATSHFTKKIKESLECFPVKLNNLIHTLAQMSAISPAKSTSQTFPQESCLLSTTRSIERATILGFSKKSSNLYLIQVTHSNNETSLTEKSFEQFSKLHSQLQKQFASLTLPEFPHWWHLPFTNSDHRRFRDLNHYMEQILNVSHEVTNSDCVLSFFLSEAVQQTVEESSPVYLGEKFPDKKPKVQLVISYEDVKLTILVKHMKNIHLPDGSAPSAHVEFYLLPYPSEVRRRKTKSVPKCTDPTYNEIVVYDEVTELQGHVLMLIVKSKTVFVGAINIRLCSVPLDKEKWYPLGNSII

[28] = target: Serine/threonine-protein kinase PLK1 (Homo sapiens) (UniProt P53350); details: Compound concentration 1000.0 nM
[29] = target: Receptor-type tyrosine-protein kinase FLT3 (Homo sapiens) (UniProt P36888); details: Compound concentration 1000.0 nM; remark: listed apart in the source
[30] = target: Mitogen-activated protein kinase 8 (Homo sapiens) (UniProt P45983); details: Compound concentration 1000.0 nM
[31] = test system: Epidermal growth factor receptor (Homo sapiens), P00533 [UNDEFINED MUTATION]; details: Compound concentration 1000.0 nM
[32] = target: Dual specificity mitogen-activated protein kinase kinase 5 (Homo sapiens) (UniProt Q13163); details: Compound concentration 1000.0 nM
[33] = target: Ephrin type-B receptor 3 (Homo sapiens) (UniProt P54753); details: Compound concentration 1000.0 nM
[34] = target: Cyclin-dependent kinase 9 (Homo sapiens) (UniProt P50750); details: Compound concentration 1000.0 nM
Cyclin-dependent kinase 9 (Homo sapiens), sequence (P50750 whole entry): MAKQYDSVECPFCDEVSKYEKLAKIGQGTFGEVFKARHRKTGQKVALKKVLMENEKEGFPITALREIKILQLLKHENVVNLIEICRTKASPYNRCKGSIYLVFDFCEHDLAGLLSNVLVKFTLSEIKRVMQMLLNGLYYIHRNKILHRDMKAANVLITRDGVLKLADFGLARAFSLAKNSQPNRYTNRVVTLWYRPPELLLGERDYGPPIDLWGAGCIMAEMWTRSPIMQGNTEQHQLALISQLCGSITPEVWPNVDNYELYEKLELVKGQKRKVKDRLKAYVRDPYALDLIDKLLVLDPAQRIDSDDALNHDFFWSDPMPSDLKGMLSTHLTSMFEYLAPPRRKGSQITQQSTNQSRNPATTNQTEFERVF

[35] = target: Transient receptor potential cation channel subfamily M member 8 (Homo sapiens, UniProt Q7Z2W7); assay: Voltage activation at 12 °C
Transient receptor potential cation channel subfamily M member 8, sequence (Q7Z2W7 whole entry): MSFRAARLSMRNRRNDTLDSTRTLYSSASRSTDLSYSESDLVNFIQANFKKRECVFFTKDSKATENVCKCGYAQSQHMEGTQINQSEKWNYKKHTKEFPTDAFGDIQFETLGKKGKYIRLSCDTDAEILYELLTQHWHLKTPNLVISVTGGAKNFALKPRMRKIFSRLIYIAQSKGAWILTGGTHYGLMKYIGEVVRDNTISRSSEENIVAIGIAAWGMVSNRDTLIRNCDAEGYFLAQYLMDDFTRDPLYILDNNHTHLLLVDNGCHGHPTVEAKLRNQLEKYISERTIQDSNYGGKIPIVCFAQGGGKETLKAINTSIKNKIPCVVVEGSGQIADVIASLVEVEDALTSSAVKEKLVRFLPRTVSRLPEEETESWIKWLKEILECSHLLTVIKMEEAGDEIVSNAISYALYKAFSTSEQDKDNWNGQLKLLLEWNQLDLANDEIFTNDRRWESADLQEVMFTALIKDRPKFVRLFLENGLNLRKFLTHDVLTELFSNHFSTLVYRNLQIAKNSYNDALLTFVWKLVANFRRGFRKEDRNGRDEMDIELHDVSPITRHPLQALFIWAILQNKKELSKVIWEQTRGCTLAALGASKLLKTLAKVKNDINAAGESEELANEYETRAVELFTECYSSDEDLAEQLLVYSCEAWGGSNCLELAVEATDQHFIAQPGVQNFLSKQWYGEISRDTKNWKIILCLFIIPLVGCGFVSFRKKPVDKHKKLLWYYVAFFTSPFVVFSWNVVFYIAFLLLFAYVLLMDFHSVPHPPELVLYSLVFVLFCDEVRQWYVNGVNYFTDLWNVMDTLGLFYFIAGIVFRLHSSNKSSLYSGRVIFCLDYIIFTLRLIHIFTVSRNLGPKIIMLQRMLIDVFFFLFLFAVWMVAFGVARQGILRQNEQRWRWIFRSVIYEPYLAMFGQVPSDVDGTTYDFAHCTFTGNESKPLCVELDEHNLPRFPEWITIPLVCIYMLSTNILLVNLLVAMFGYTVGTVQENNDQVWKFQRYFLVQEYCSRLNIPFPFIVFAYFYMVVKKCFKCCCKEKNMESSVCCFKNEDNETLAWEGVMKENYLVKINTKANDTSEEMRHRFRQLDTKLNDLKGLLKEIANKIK

[36] = test system: Tyrosine-protein kinase ABL1 (Homo sapiens), P00519 [Q252H]; details: Compound concentration 1000.0 nM
[37] = test system: Mast/stem cell growth factor receptor Kit (Homo sapiens), P10721 [A829P]; details: Compound concentration 1000.0 nM
[38] = target: Serine/threonine-protein kinase PLK4 (Homo sapiens) (UniProt O00444); details: Compound concentration 1000.0 nM
[39] = target: Calcium/calmodulin-dependent protein kinase type IV (Homo sapiens) (UniProt Q16566); details: Compound concentration 1000.0 nM
[40] = target: Insulin receptor-related protein (Homo sapiens) (UniProt P14616); details: Compound concentration 1000.0 nM
[41] = target: Serine/threonine-protein kinase 26 (Homo sapiens) (UniProt Q9P289); details: Compound concentration 1000.0 nM
[42] = target: Peripheral plasma membrane protein CASK (Homo sapiens) (UniProt O14936); details: Compound concentration 1000.0 nM
[43] = target: Serine/threonine-protein kinase WNK1 (Homo sapiens) (UniProt Q9H4A3); details: Compound concentration 1000.0 nM
[44] = target: Tyrosine-protein kinase Fgr (Homo sapiens) (UniProt P09769); details: Compound concentration 1000.0 nM

`C[C@H](c1ccc(F)cc1)N(Cc1cccc(C(=O)O)c1)C(=O)c1cnc2ccccc2c1` [PF-05105679] showed a residual activity [1] of 100%, a residual activity [2] of 100% and a residual activity [3] of 89%. For the same compound, the residual activity [4] was 100%, the residual activity [5] was 100% and the residual activity [6] was 100%. The inhibition [7] was 26%, the residual activity [8] was 91% and the residual activity [9] was 100%. The residual activity [10] was 94%, the residual activity [11] was 96% and the residual activity [12] was 100%. The residual activity [13] was 100%, the residual activity [14] was 100% and the residual activity [15] was 100%. It also gave a residual activity [16] of 100%, a residual activity [17] of 100% and a Ki [18] of 1.02 µM. It also gave a pKi [18] of 5.99, a residual activity [19] of 100% and a residual activity [20] of 90%. It also gave a residual activity [21] of 85%, a residual activity [22] of 100% and a residual activity [23] of 92%. It also gave a residual activity [24] of 100%, a residual activity [25] of 92% and a residual activity [26] of 94%. It also gave a residual activity [27] of 100%, a residual activity [28] of 79% and a residual activity [29] of 100%. The residual activity [30] was 100%, the residual activity [31] was 100% and the residual activity [32] was 92%. The residual activity [33] was 100%, the residual activity [34] was 89% and the IC50 [35] was 0.0138 µM (active). For the same compound, the residual activity [36] was 89%, the residual activity [37] was 92% and the residual activity [38] was 100%. The residual activity [39] was 100%, the residual activity [40] was 84% and the residual activity [41] was 79%. The residual activity [42] was 86%, the residual activity [43] was 100% and the residual activity [44] was 100%.

Reference: ChEMBL document CHEMBL4507296 (2021)
